In patent EP3074389B1, “QUINOLINE DERIVATIVES AS BROMODOMAIN INHIBITORS” (Gilead Sciences, Inc., priority 2013, dated 2015) one finds Kd data, which are given here for 28 compounds.

By Kd is commonly meant the constant that tells how readily two partners part at equilibrium.

One experiment deals with BRD4 domain 2 (Homo sapiens, UniProt O60885). Nature of the experiment: Kd determination of inhibitors binding to BRD4 domain 2 (Epic label-free platform). The following applies: direct binding to immobilized BRD4 domain 2; tripling dilution series from 20µM; about 1hr equilibrium; rounded to whole number. Here is the method:
(§1) Kd Determination of Inhibitors Binding to BRD4 Domain 1 and Domain 2
(§2) The binding of small molecule inhibitors to either BRD4 domain 1 or domain 2 were determined using the Epic, high-throughput, label-free platform (Corning, Lowell, MA). The Epic instrument incorporates an evanescent waveguide sensor within each well of its proprietary 384-well microplates. Direct binding of inhibitors to BRD4 immobilized onto the microplate well surface can be detected by exposing the waveguide to a broadband light source. The resulting resonant wavelength shift (measured in picometers (pm)) is proportional to the mass bound to the surface. Epic biochemical plates (Corning, Lowell, MA) were activated by adding 15 µL/well of 200 mM EDC and 50 mM Sulfo-NHS (Pierce Thermo Scientific, Rockford, IL) and incubated for 60 minutes at room temperature. Plates were washed three times with MilliQ water and dried by centrifugation (1 minute at 400 rpm). BRD4 immobilization was accomplished by resuspending the protein at a concentration of 150 µg/mL in 20 mM HEPES (pH 7) and adding 10 µL/well. […] Compound/inhibitor binding was determined by calculating difference between the baseline (first read) and second read. The resulting binding response was fitted to a single site binding isotherm in order to determine an equilibrium dissociation constant (Kd).

A further experiment deals with BRD4 domain 1 (Homo sapiens, UniProt O60885). Nature of the experiment: Kd determination of inhibitors binding to BRD4 domain 1 (Epic label-free platform). The settings on record: direct binding to immobilized BRD4 domain 1; tripling dilution series from 20µM; about 1hr equilibrium; rounded to whole number; read-out: Epic Kd BRD41. As for the experimental part:
as §1, §2

SMILES strings stand for the structures.

As to `Cc1noc(C)c1-c1cc(S(=O)(=O)NC2CCCC2)c2cc(NCCN)c(=O)[nH]c2c1` [Compound 78, 3-((2-aminoethyl)amino)-N-cyclopentyl-7-(3,5-dimethylisoxazol-4-yl)-2-oxo-1,2-dihydroquinoline-5-sulfonamide], the results for the Kd at BRD4 domain 2 and on BRD4 domain 1 were 392 nM and 744 nM, respectively.
On the same counts, the results for `Cc1noc(C)c1-c1cc(S(=O)(=O)NC2CCCC2)c2cc(NCCCN(C)C)c(=O)[nH]c2c1` [Compound 95, N-cyclopentyl-3-((3-(dimethylamino)propyl)amino)-7-(3,5-dimethylisoxazol-4-yl)-2-oxo-1,2-dihydroquinoline-5-sulfonamide] are 503 nM and 798 nM.
Take `Cc1noc(C)c1-c1cc(S(=O)(=O)N[C@@H]2CCC[C@@H]2C(=O)N2CCNCC2)c2cccnc2c1` [Compound 50, 7-(3,5-dimethylisoxazol-4-yl)-N-((1R,2S)-2-(piperazine-1-carbonyl)cyclopentyl) quinoline-5-sulfonamide]: the Kd came to 8130 nM on BRD4 domain 2 and 7170 nM at BRD4 domain 1.
For the compound `Cc1noc(C)c1-c1cc(S(=O)(=O)NC2CCCC2)c2cc(NCCN3CCCC3)c(=O)[nH]c2c1` [Compound 89, N-cyclopentyl-7-(3,5-dimethylisoxazol-4-yl)-2-oxo-3-((2-(pyrrolidin-1-yl)ethyl)amino)-1,2-dihydroquinoline-5-sulfonamide], the Kd on BRD4 domain 2 amounted to 656 nM; at BRD4 domain 1, 881 nM.
For the compound `Cc1noc(C)c1-c1cc(S(=O)(=O)NC2CCCC2)c2cc(N)c(=O)[nH]c2c1` [Compound 41, 3-amino-N-cyclopentyl-7-(3,5-dimethylisoxazol-4-yl)-2-oxo-1,2-dihydroquinoline-5-sulfonamide], the Kd stood at 450 nM on BRD4 domain 2 and 400 nM on BRD4 domain 1.
In the same order, the values of `Cc1noc(C)c1-c1cc(S(=O)(=O)NC2CCCC2)c2cc(NC3COC3)c(=O)[nH]c2c1` [Compound 96, N-cyclopentyl-7-(3,5-dimethylisoxazol-4-yl)-3-(oxetan-3-ylamino)-2-oxo-1,2-dihydroquinoline-5-sulfonamide] are 433 nM and 467 nM.
In the case of `Cc1noc(C)c1-c1cc(S(=O)(=O)NC2CCCC2)c2cc(C(=O)N(C)C)c(=O)[nH]c2c1` [Compound 75, 5-(N-cyclopentylsulfamoyl) -7-(3,5-dimethylisoxazol-4-yl)-N,N-dimethyl-2-oxo-1,2-dihydroquinoline-3 - carboxamide], the Kd at BRD4 domain 2 came out at 8940 nM; at BRD4 domain 1 it was 10700 nM.
Regarding `Cc1noc(C)c1-c1cc(S(=O)(=O)N(C)C2CC2)c2cccnc2c1` [Compound 9, N-cyclopropyl-7-(3,5-dimethylisoxazol-4-yl)-N-methylquinoline-5-sulfonamide], the equilibrium dissociation constant (Kd) was 12500 nM on BRD4 domain 2 and > 20000 nM at BRD4 domain 1.
With `Cc1noc(C)c1-c1cc(S(=O)(=O)NC2(C(F)(F)F)CC2)c2cccnc2c1` [Compound 84, 7-(3,5-dimethylisoxazol-4-yl)-N-(1-(trifluoromethyl)cyclopropyl)quinoline-5-sulfonamide], the dissociation constant Kd on BRD4 domain 2 was 18200 nM; at BRD4 domain 1, 2000 nM.
In the same order, the values of `Cc1noc(C)c1-c1cc(S(=O)(=O)NC2CCCC2)c2cc(NCC(C)(C)O)c(=O)[nH]c2c1` [Compound 98, N-cyclopentyl-7-(3,5-dimethylisoxazol-4-yl)-3-((2-hydroxy-2-methylpropyl)amino)-2-oxo-1,2-dihydroquinoline-5-sulfonamide] are 545 nM and 1030 nM.
As to `Cc1noc(C)c1-c1cc(S(=O)(=O)NC2CCCC2)c2cc(-n3ccnc3)c(=O)[nH]c2c1` [Compound 32, N-cyclopentyl-7-(3,5-dimethylisoxazol-4-yl)-3-(1H-imidazol-1-yl)-2-oxo-1,2-dihydroquinoline-5-sulfonamide], the Kd at BRD4 domain 2 was determined as 519 nM; at BRD4 domain 1, 717 nM.
In the case of `Cc1noc(C)c1-c1cc(S(=O)(=O)NC2CCC(C)(C)C2)c2cccnc2c1` (centres unmarked) [Compound 39, N-(3,3-dimethylcyclopentyl)-7-(3,5-dimethylisoxazol-4-yl)quinoline-5-sulfonamide], the Kd came to 13400 nM on BRD4 domain 2 and 5560 nM at BRD4 domain 1.
`Cc1noc(C)c1-c1cc(S(=O)(=O)NC2CCC2)c2cccnc2c1` [Compound 10, N-cyclobutyl-7-(3,5-dimethylisoxazol-4-yl)quinoline-5-sulfonamide]: the Kd at BRD4 domain 2 was 2680 nM; on BRD4 domain 1, 3190 nM.
On the same counts, the results for `Cc1noc(C)c1-c1cc(S(=O)(=O)NC2CCCC2)c2cc(N(C)C)c(=O)[nH]c2c1` [Compound 61, N-cyclopentyl-3-(dimethylamino)-7-(3,5-dimethylisoxazol-4-yl)-2-oxo-1,2-dihydroquinoline-5-sulfonamide] are 645 nM and 1020 nM.
Consider `Cc1noc(C)c1-c1cc(S(=O)(=O)NC2CCCC2)c2cc(C#N)c(=O)[nH]c2c1` [Compound 31, 3-cyano-N-cyclopentyl-7-(3,5-dimethylisoxazol-4-yl)-2-oxo-1,2-dihydroquinoline-5-sulfonamide], for which the Kd was 634 nM on BRD4 domain 2 and 867 nM on BRD4 domain 1.
Turning to `Cc1noc(C)c1-c1cc(S(=O)(=O)NCC2CC2)c2cccnc2c1` [Compound 15, N-(cyclopropylmethyl)-7-(3,5-dimethylisoxazol-4-yl)quinoline-5-sulfonamide], the Kd is 5900 nM at BRD4 domain 2 and 9430 nM on BRD4 domain 1.
For the compound `Cc1noc(C)c1-c1cc(S(=O)(=O)NC2(C)CCCC2)c2cccnc2c1` [Compound 24, 7-(3,5-dimethylisoxazol-4-yl)-N-(1-methylcyclopentyl)qui noline-5-sulfonamide], the Kd at BRD4 domain 2 is 2110 nM; at BRD4 domain 1, 3550 nM.
Consider `Cc1noc(C)c1-c1cc(S(=O)(=O)NC2CC3CCC(C2)N3C)c2cccnc2c1` (centres unmarked) [Compound 40, 7-(3,5-dimethylisoxazol-4-yl)-N-(8-methyl-8-azabicyclo[3.2.1]octan-3-yl)quinoline-5-sulfonamide], for which the Kd at BRD4 domain 2 was > 20000 nM; on BRD4 domain 1, 16000 nM.
With `Cc1noc(C)c1-c1cc(S(=O)(=O)N[C@H]2C[C@@H](N)C2)c2cccnc2c1` [Compound 34, N-((1S,3S)-3-aminocyclobutyl)-7-(3,5-dimethylisoxazol-4-yl)quinoline-5-sulfonamide], the Kd came out at 11100 nM on BRD4 domain 2 and 5480 nM at BRD4 domain 1.
On to `Cc1noc(C)c1-c1cc(S(=O)(=O)NC2CCCC2)c2cccnc2c1Cl` [Compound 18, 8-chloro-N-cyclopentyl-7-(3,5-dimethylisoxazol-4-yl)quinoline-5-sulfonamide], for which the dissociation constant Kd on BRD4 domain 2 is 4260 nM; on BRD4 domain 1 it was 9150 nM.
In the case of `CNc1cc2c(S(=O)(=O)NC3CCCC3)cc(-c3c(C)noc3C)cc2[nH]c1=O` [Compound 62, N-cyclopentyl-7-(3,5-dimethylisoxazol-4-yl)-3-(methytamino)-2-oxo-1,2-dihydroquinoline-5-sulfonamide], the equilibrium dissociation constant (Kd) was 526 nM on BRD4 domain 2 and 850 nM on BRD4 domain 1.
`Cc1noc(C)c1-c1cc(S(=O)(=O)NC2CCCC2)c2ccc(N)nc2c1` [Compound 17, 2-amino-N-cyclopentyl-7-(3,5-dimethylisoxazol-4-yl)quinoline-5-sulfonamide]: the figures for the Kd on BRD4 domain 2 and on BRD4 domain 1 were 1110 nM and 885 nM, respectively.
In the case of `Cc1noc(C)c1-c1cc(S(=O)(=O)N[C@H]2CCC[C@H]2O)c2cccnc2c1` [Compound 27, 7-(3,5-dimethylisoxazol-4-yl)-N-((1S,2R)-2-hydroxycyclopentyl)q uinoline-5-sulfonamide], the values for the Kd on BRD4 domain 2 and at BRD4 domain 1 were 6800 nM and 12500 nM, respectively.
On to `Cc1noc(C)c1-c1cc(S(=O)(=O)NC2CCCC2)c2cc(N3CCCCC3)c(=O)[nH]c2c1` [Compound 60, N-cyclopentyl-7-(3,5-dimethylisoxazol-4-yl)-2-oxo-3-(piperidin-1-yl)-1,2-dihydroquinoline-5-sulfonamide], for which the results for the Kd on BRD4 domain 2 and on BRD4 domain 1 were 1900 nM and 2230 nM, respectively.
For `Cc1noc(C)c1-c1cc(S(=O)(=O)NC2CCCC2)c2ccc(NCC3CC3)nc2c1` [Compound 5, N-cyclopentyl-2-((cyclopropylmethyl)amino)-7-(3,5-dimethylisoxazol-4-yl)quinoline-5-sulfonamide], the Kd on BRD4 domain 2 is 1460 nM; at BRD4 domain 1, 1060 nM.
With `Cc1noc(C)c1-c1cc(S(=O)(=O)N[C@@H]2CCC[C@H]2O)c2ccc(=O)[nH]c2c1` [Compound 82, 7-(3,5-dimethylisoxazol-4-yl)-N-((1R,2R)-2-hydroxycyclopentyl)-2-oxo-1,2-dihydroquinoline-5-sulfonamide], the results for the Kd at BRD4 domain 2 and on BRD4 domain 1 were 1900 nM and 1920 nM, respectively.
For `Cc1noc(C)c1-c1cc(S(=O)(=O)NC2CCCC2)c2cc(-n3cccn3)c(=O)[nH]c2c1` [Compound 33, N-cyclopentyl-7-(3,5-dimethylisoxazol-4-yl)-2-oxo-3-(1H-pyrazol-1-yl)-1,2-dihydroquinoline-5-sulfonamide], the Kd on BRD4 domain 2 came out at 561 nM; at BRD4 domain 1, 760 nM.
On to `Cc1noc(C)c1-c1cc(S(=O)(=O)N[C@@H]2CCC[C@H]2N)c2cccnc2c1` (stereo in doubt) [Compound 46, N-((1R,2R)-2-aminocyclopentyl)-7-(3,5-dimethylisoxazol-4-yl)quinoline-5-sulfonamide], for which the figures for the Kd at BRD4 domain 2 and on BRD4 domain 1 were 7830 nM and 6420 nM, respectively.
